From US10266496B2, “Carboxy substituted (hetero) aromatic ring derivatives and preparation method and uses thereof” (SUNSHINE LAKE PHARMA CO., LTD., priority 2015, dated 2019) come the findings set out here.

The target of one data set is xanthine oxidase (Homo sapiens (Human), UniProt P47989). Description: XO (Xanthine Oxidase) inhibition activity assay. Format: biochemical. As to conditions: substrate xanthine, absorbance at 290 nm. The method, then:
Then the diluted solution was added to a 384 well plate at 30 μL/well, and then to each well was added 30 μL of 21 mU/mL xanthine oxidase. […] After being incubated at room temperature for 5 min, absorbance at 290 nm was read by using PHERAstar FS microplate reader.

The target in a further data set is hURAT1 (Homo sapiens (Human), UniProt Q96S37). Description: URAT1 (urate anion transporter) inhibition activity assay: [8-14C] uric acid absorption inhibition in HEK293T cell line stably expressing hURAT1. The conditions noted are these: [8-14C] uric acid uptake, HEK293T cells stably expressing hURAT1. Format: cell-based. The text has this: Inhibition ratio (%)=[1−(^14C uptaken by drug well−^14C uptaken by negative well)/(^14C uptaken by buffer well−^14C uptaken by negative well)]×100;
Wherein, the negative well was unvaccinated cell line […].

The nature of data set [1]: Pharmacokinetic evaluation in SD rats. It counts as in vivo. The method, then:
SD rats were fasted for 15 h overnight and grouped randomly according to body weight. The test compound was dissolved in a solution of 5% DMSO+5% Solutol+90% Saline. For intravenous administration of the test group, the animals were administered with a dose of 1 mg/kg; for oral administration of the test group, the animals were administered with a dose of 5 mg/kg. Then venous blood (approximately 0.2 mL) was collected at the time point of 0, 0.083 (only intravenous injection group), 0.25, 0.5, 1.0, 2.0, 5.0, 7.0 and 24 h after drug administration. The venous blood was placed in EDTAK2 anticoagulant tube and centrifuged at 11000 rpm for 2 min. Plasma was collected and stored at −20° C. or at −70° C. until LC/MS/MS analysis. The drug concentration in plasma was measured at each time point, and pharmacokinetic parameters were calculated according to the curve of drug concentration-time.

The mark [2] stands for this setting: rat, plasma, SD rats, iv, 1 mg/kg.
The mark [3] stands for this setting: rat, plasma, SD rats, iv, 1 mg/kg, read-out: Cmax.
[4] abbreviates: rat, plasma, SD rats, po, 5 mg/kg.

Molecules are shown by their SMILES. pIC50: −log10 of the molar value. Where two headings read alike, the source gives them in different places.

Sequence of hURAT1 (Q96S37 whole entry): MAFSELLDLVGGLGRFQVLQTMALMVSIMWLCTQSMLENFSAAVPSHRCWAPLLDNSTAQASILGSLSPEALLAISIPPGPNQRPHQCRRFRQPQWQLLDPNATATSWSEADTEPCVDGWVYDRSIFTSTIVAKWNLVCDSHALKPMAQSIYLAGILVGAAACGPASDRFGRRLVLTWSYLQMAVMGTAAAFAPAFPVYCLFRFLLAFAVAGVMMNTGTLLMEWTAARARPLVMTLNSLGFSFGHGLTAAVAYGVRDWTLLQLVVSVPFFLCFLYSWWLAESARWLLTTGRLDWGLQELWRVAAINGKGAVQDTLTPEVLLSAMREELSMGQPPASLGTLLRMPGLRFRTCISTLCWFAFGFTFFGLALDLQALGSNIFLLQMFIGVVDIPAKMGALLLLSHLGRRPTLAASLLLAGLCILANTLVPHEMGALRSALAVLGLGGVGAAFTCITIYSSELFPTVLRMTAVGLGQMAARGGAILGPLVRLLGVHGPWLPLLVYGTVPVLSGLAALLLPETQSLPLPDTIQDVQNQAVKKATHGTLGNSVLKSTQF
Sequence of xanthine oxidase (P47989 whole entry, species assumed): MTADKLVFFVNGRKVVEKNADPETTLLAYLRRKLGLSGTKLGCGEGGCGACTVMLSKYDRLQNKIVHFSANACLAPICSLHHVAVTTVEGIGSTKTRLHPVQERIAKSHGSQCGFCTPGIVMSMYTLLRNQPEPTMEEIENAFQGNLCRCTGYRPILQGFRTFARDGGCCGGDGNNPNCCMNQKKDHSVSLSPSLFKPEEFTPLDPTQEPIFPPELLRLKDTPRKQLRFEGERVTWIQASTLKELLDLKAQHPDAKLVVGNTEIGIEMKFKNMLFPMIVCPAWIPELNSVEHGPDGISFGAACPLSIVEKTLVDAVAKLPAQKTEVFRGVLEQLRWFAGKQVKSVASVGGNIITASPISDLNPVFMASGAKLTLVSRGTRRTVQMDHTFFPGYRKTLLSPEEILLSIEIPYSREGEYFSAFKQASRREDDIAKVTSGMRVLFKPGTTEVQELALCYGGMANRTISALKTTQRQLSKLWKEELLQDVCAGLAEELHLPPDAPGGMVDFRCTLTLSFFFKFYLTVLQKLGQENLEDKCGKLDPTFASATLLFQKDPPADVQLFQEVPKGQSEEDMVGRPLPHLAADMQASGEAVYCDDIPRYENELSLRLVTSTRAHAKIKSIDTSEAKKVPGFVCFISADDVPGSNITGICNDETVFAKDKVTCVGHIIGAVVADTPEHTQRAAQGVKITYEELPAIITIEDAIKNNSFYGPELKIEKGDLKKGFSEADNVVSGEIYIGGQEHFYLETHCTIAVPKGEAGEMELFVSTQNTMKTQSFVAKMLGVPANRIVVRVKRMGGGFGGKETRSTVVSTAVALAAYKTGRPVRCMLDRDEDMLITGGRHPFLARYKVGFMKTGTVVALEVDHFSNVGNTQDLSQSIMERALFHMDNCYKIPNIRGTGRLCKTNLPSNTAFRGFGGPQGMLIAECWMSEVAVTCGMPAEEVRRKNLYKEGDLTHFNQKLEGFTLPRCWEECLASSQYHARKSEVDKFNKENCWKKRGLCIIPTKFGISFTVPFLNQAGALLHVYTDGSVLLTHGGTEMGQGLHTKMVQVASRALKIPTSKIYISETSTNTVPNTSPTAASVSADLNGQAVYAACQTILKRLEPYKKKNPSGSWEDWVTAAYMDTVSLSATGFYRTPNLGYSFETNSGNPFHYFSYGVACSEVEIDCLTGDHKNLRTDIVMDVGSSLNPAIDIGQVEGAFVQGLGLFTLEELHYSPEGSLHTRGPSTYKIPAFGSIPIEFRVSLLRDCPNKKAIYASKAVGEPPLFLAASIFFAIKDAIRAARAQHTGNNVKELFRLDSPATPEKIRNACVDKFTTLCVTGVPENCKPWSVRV

As usually defined, the pIC50 is the IC50 on a negative log10 scale, so that one unit is a factor of ten. A high value points to a small IC50. As to `N#Cc1cc2c(c(-c3ccc(C(=O)O)c(O)c3)c1)OCC2` [Example 4, 4-(5-cyano-2,3-dihydrobenzofuran-7-yl)-2-hydroxybenzoic Acid], the pIC50 against xanthine oxidase was 7.22; against hURAT1, 6.30.

On to `N#Cc1cc(-c2ccc(C(=O)O)c(O)c2)c2ccsc2c1` [Example 31, 4-(6-cyanobenzo[b]thiophen-4-yl)-2-hydroxybenzoic Acid], for which the pIC50 on xanthine oxidase is 7.24; at hURAT1, 7.35.

Regarding `N#Cc1cc(-c2ccc(C(=O)O)c(O)c2)c2ccoc2c1` [Example 21, 4-(6-cyanobenzofuran-4-yl)-2-hydroxybenzoic Acid], the figures for the negative-log IC50 (pIC50) against xanthine oxidase and against hURAT1 were 7.40 and 6.76, respectively.

Usually AUC(0-inf) stands for total exposure, with the tail of the curve extrapolated. High values mean high exposure, low ones low exposure. The MRT inf is the average time that molecules of a dose stay in the body. What is called Tmax is the time from dosing to the highest level. Usually half-life stands for the time needed for the level to fall by half in the phase considered. A lower half-life goes with rapid decline. As usually defined, the Cmax is the highest concentration seen after dosing. `N#Cc1cc(-c2ccc(C(=O)O)c(O)c2)c2occc2c1` [Example 1, 4-(5-cyanobenzofuran-7-yl)-2-hydroxybenzoic Acid] gave a pIC50 against xanthine oxidase of 7.71. This molecule also gave a pIC50 against hURAT1 of 6.85. In data set [1] (SD, rat, in vivo), the F is listed as 131%. In data set [1] (SD, rat, in vivo, iv, 1 mg/kg), the AUClast is 6860 ng·h/mL, the Vd was 0.399 L/kg and the clearance is 2.4 mL/min/kg. Moreover, in data set [1] (SD, rat, in vivo, po, 5 mg/kg), the AUClast was determined as 44400 ng·h/mL and the T1/2 worked out at 3.45 h. For the same molecule, in data set [1] (setting [2]), the AUC(0-inf) came to 7000 ng·h/mL, the MRT inf was 2.84 h, the Tmax amounted to 0.083 h and the half-life is 1.53 h. Further, in data set [1] (setting [3]), the Cmax was found to be 6030 ng/mL. Further, in data set [1] (setting [4]), the AUC(0-inf) was 45800 ng·h/mL, the MRT inf came to 5.98 h and the Tmax came to 0.417 h.

Turning to `N#Cc1cc(-c2ccc(C(=O)O)c(O)c2)c2oc(Cl)cc2c1` [Example 40, 4-(2-chloro-5-cyanobenzofuran-7-yl)-2-hydroxybenzoic Acid], the negative-log IC50 (pIC50) against xanthine oxidase is 7.27. Besides, on hURAT1, the pIC50 was 7.52. The same molecule came in with a F in data set [1] (SD, rat, in vivo) of 94%. In data set [1] (SD, rat, in vivo, iv, 1 mg/kg), this molecule returned an AUClast of 5480 ng·h/mL, a Cl of 2.77 mL/min/kg and a Vd of 0.401 L/kg. Also, in data set [1] (SD, rat, in vivo, po, 5 mg/kg), the AUClast came out at 28100 ng·h/mL, the concentration peaked (Cmax) at 3700 ng/mL and the T1/2 was 3.05 h. For the same molecule, in data set [1] (setting [2]), the AUC(0-inf) turned out to be 6020 ng·h/mL, the mean residence time MRT inf worked out at 2.42 h, the Tmax was determined as 0.083 h and the half-life is 2.33 h. Also, the Cmax in data set [1] (setting [3]) is 4090 ng/mL. Further, in data set [1] (setting [4]), the AUC(0-inf) was 28200 ng·h/mL, the MRT inf was determined as 4.95 h and the Tmax came to 0.5 h.

`N#Cc1cc(-c2ccc(C(=O)O)c(O)c2)c2[nH]ccc2c1` [Example 7, 4-(5-cyano-1H-indol-7-yl)-2-hydroxybenzoic Acid]: the pIC50 against xanthine oxidase is 7.96; against hURAT1 it was 5.54.

As usually defined, the AUC(0-t) is the area under the concentration-time curve up to a stated or last time point. High values mean more exposure, low ones less exposure. For `N#Cc1cc(-c2ccc(C(=O)O)c(O)c2)c2ccccc2c1` [Example 2, 4-(3-cyanonaphthalene-1-yl)-2-hydroxybenzoic Acid], the F in data set [1] (SD rats, po 5 mg/kg vs iv 1 mg/kg) is on record as 74.9%. Also, in data set [1] (setting [2]), the AUC(0-inf) was 2210 ng·h/mL, the AUC(0-t) came out at 2170 ng·h/mL, the mean residence time MRT inf worked out at 1.86 h and the Tmax was determined as 0.083 h. Besides, the half-life in data set [1] (setting [2]) is 3.1 h. Also, the clearance in data set [1] (rat, plasma, SD rats, iv, 1 mg/kg, read-out: Cl) worked out at 7.59 mL/min/kg. Moreover, the highest concentration (Cmax) in data set [1] (setting [3]) was determined as 4380 ng/mL. Also, the Vd in data set [1] (rat, plasma, SD rats, iv, 1 mg/kg, read-out: Vss) was 0.828 L/kg. For the same molecule, in data set [1] (setting [4]), the AUC(0-inf) came out at 8140 ng·h/mL, the AUC(0-t) stood at 8130 ng·h/mL, the MRT inf amounted to 1.5 h and the Tmax stood at 0.417 h. Besides, the half-life in data set [1] (setting [4]) was 3.86 h. The peak concentration (Cmax) in data set [1] (rat, plasma, SD rats, po, 5 mg/kg, read-out: Cmax) came to 6290 ng/mL.

For the molecule `N#Cc1cc(-c2ccc(C(=O)O)c(O)c2)c2oc(F)cc2c1` [Example 29, 4-(5-cyano-2-fluorobenzofuran-7-yl)-2-hydroxybenzoic Acid], the pIC50 on xanthine oxidase is 7.46. Also, the pIC50 on hURAT1 is 7.42. This molecule also yielded a F in data set [1] (SD, rat, in vivo) of 145%. In data set [1] (SD, rat, in vivo, iv, 1 mg/kg), the AUClast stood at 10900 ng·h/mL, the Cl came to 1.51 mL/min/kg and the Vd stood at 0.311 L/kg. In data set [1] (SD, rat, in vivo, po, 5 mg/kg), this molecule returned an AUClast of 81700 ng·h/mL and a T1/2 of 2.84 h. For the same molecule, in data set [1] (setting [2]), the AUC(0-inf) turned out to be 11300 ng·h/mL, the MRT inf was found to be 3.49 h, the Tmax worked out at 0.083 h and the half-life was 2.76 h. For the same molecule, in data set [1] (setting [3]), the Cmax was found to be 4540 ng/mL. In addition, in data set [1] (setting [4]), the area under the curve AUC(0-inf) stood at 82100 ng·h/mL, the MRT inf came to 3.8 h and the Tmax amounted to 1.33 h.
